Laboratory results from patent US9877923B2, “Process for preparing therapeutic nanoparticles” (Pfizer Inc., priority 2012, dated 2018).
≈ marks a conversion by molar mass, not a printed value.

What was measured:
[1] = Drug recovery during in vitro release experiments; format: physicochemical; details: after 4 hr incubation at 37° C.
Source text: Release data of 24 hr and 48 hr, in Table 4, are underlined because the drug recovered at these two time points show significant degradation (data are shown in the bottom of the table in the Drug Recovery section).

[2] = Dasatinib solubility in selected solvents with or without acid doping (by HPLC); details: organic solvent or mixture

- stability of dasatinib during incubation [1]: degradation of dasatinib is observed
- solubility ([2]; 1% TFA in benzyl alcohol): 56.5 mg/mL (≈ 116 mM)
- solubility ([2]; 2% TFA in benzyl alcohol): 103 mg/mL (≈ 211 mM)
- solubility ([2]; 3% TFA in 7.5% water in benzyl alcohol): 157 mg/mL (≈ 322 mM)
- solubility ([2]; 3% TFA in benzyl alcohol): 141 mg/mL (≈ 289 mM)
- solubility ([2]; 7.5% water in benzyl alcohol): 32.8 mg/mL (≈ 67.1 mM)
SMILES: Cc1nc(Nc2ncc(C(=O)Nc3c(C)cccc3Cl)s2)cc(N2CCN(CCO)CC2)n1 [Dasatinib, dasatinib]
